The subject of experiment [1] is ARPE-19 cells. Description: Lactate dehydrogenase (LDH) release assay. Format: cell-based, Human. The settings on record: ARPE-19, HG + cytokines, 72 h. The protocol:
(§1) Cell Culture—Human adult retinal pigment epithelial cells (ARPE-19; American Type Culture Collection, USA) were cultured in Dulbecco's Modified Eagle Medium Nutrient Mixture F-12 (DMEM-F12; Thermofisher Scientific Inc., USA) supplemented with 10% foetal bovine serum (FBS; Invitrogen, USA) and a 1× antibiotics and antimycotics mixture (AA, 100× stock) at 37° C. in a humidified 5% CO2 incubator. Cells were grown in T75 flasks and the medium was changed twice per week until confluent. […]
Lactate Dehydrogenase (LDH) assay—Cells were seeded at 2.5×10^5 cells/mL in 96-well plates until confluent after which the culture medium was changed to treatments in serum-free DMEM-F12 containing 1×AA for 72 h. […] The amount of LDH released was assessed using an LDH assay kit as per manufacturer instructions (Sigma-Aldrich, USA). […] A Synergy 2 multi-mode plate reader (BioTek Instruments Inc., USA) was used to measure the absorbance of the formazan dye in the medium at 490 nm (OD490). LDH release (%) was calculated relative to basal conditions.

The subject of experiment [2] is ARPE-19 cells. Description: Trans-epithelial electrical resistance (TEER) of ARPE-19 monolayer after HG and cytokine challenge. As to conditions: ARPE-19, HG 32.5 mM + TNF-α and IL-1β 10 ng/mL, Peptide5 25 μM. Format: cell-based, Human. The protocol: Cell Culture—Human adult retinal pigment epithelial cells (ARPE-19; American Type Culture Collection, USA) were cultured in Dulbecco's Modified Eagle Medium Nutrient Mixture F-12 (DMEM-F12; Thermofisher Scientific Inc., USA) supplemented with 10% foetal bovine serum (FBS; Invitrogen, USA) and a 1× antibiotics and antimycotics mixture (AA, 100× stock) at 37° C. in a humidified 5% CO2 incubator. Cells were grown in T75 flasks and the medium was changed twice per week until confluent.
HG and/or cytokine challenge—At passage 6-12, cells were plated at 2.5×10^5 cells/mL in 8-well chamber slides for immunohistochemical studies, 6-well plates for TEER and FITC-dextran studies or 96-well plates for the […] dehydrogenase (LDH) and ATP release assay until confluent after which the culture medium was changed to treatments in serum-free DMEM-F12 containing 1×AA for 24 h. […]
Measurement of Trans-Epithelial Electrical Resistance (TEER)—Cells were seeded at 2.5×10^5 cells/mL on polyester membranes in Transwell® 6-well plates (Corning Incorporated, USA) in growth medium and incubated for 72 h. […] Net TEER values were calculated by subtracting the resistance in Transwell inserts without cells from the experimental values obtained from chamber containing cells. […] The sample size was three readings per well, repeated three times in separate experiments.

Experiment [3] relates to ARPE-19 cells. Nature of the experiment: Connexin43 immunohistochemistry (gap junction plaque localisation). Format: cell-based, Human. The settings on record: ARPE-19, HG + cytokines, 72 h. The protocol:
as §1
(§2) Image analysis and quantification of collagen IV immunolabelling—Images were taken on an Olympus FV1000 confocal laser scanning microscope (Olympus, Japan). […] Both ZO-1 and connexin43 expression were qualitatively assessed for changes in localisation. Collagen IV labelling was quantified from four images taken per well and the experiment was repeated three times. […] The total area covered by collagen IV was then quantified using the ‘measure’ feature in ImageJ. Collagen IV results were expressed as a percentage of untreated (basal) cells.

For experiment [4], the system named is ARPE-19 cells. Description: ZO-1 immunohistochemistry (localisation). Format: cell-based, Human. As to conditions: ARPE-19, HG + cytokines, Peptide5 25 μM, 72 h. As for the experimental part: as §1, §2
For experiment [5], the target named is connexin43 hemichannel (human, UniProt P17302 2-382). Nature of the experiment: cell-based or functional assay.
connexin43 hemichannel, sequence (P17302 2-382): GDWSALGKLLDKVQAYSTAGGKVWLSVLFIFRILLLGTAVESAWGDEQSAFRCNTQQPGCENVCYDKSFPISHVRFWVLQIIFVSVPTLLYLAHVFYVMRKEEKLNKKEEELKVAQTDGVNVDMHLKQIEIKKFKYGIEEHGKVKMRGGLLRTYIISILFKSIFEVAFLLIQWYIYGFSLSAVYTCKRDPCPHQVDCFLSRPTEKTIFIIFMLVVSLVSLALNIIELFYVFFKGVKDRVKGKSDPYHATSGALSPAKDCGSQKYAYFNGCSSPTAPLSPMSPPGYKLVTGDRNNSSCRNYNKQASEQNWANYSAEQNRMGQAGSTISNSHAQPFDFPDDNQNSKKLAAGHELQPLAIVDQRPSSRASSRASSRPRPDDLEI
Where [6] appears, read: Peptide5 25 μM plus exogenous ATP 100 nM.

We go through 2 molecules from patent publication US20210000911A1, “COMPOSITIONS AND METHODS FOR PROTECTING EPITHELIAL AND BARRIER INTEGRITY” (OCUNEXUS THERAPEUTICS, INC., priority 2019, published 2021).

“Also recorded” adds a separate entry of the source.

On to “H-Val-Asp-Cys-Phe-Leu-Ser-Arg-Pro-Thr-Glu-Lys-Thr-OH (H-VDCFLSRPTEKT-OH) [Peptide5]”, for which the “LDH release with exogenously added ATP” value in experiment [1] (setting [6]) is “once-again increased LDH release; also recorded: LDH levels were increased to injury levels”. For the same molecule, the “LDH release relative to basal conditions” value in experiment [1] (Peptide5 25 μM) is “LDH release remains low; also recorded: prevented LDH release relative to basal conditions; also recorded: reduced by Peptide5 treatment”. Also, the “TEER relative to basal conditions” value in experiment [2] (48 h) is “no statistically significant difference between Peptide5-treated and basal cells; also recorded: prevented a decrease in TEER at both time-points”; in experiment [2] (72 h), “no statistically significant difference between Peptide5-treated and basal cells; also recorded: prevented a decrease in TEER at both time-points”. Besides, the “Connexin43 localisation with exogenously added ATP (qualitative)” value in experiment [3] (setting [6]) was “change in connexin43 gap junction localisation; also recorded: again a loss of connexin43 at cell membranes”. Besides, the “Connexin43 localisation at the cell membrane (qualitative)” value in experiment [3] (Peptide5 25 μM) is “protected against the redistribution of connexin43 localisation away from the cell membrane and into the cytoplasm; also recorded: connexin43 is kept in its normal pattern; also recorded: maintained connexin43 primarily in gap junction plaques, similar to basal conditions”. Moreover, in experiment [4], the “ZO-1 localisation at the cell membrane (qualitative)” value is “maintained ZO-1 localisation to cell membranes similar to basal conditions”.
For H-VDCFLSRPTEKT-OH [Peptide5 (H-Val-Asp-Cys-Phe-Leu-Ser-Arg-Pro-Thr-Glu-Lys-Thr-OH)], the “FITC-dextran permeability at 72 h (% relative to blank wells), ARPE-19 monolayer with HG and cytokines, Peptide5 at 25 uM” value in experiment [5] was found to be 33.2%.
